Results: publication PMC7699745, “The Search for New Anticonvulsants in a Group of (2,5-Dioxopyrrolidin-1-yl)(phenyl)Acetamides with Hybrid Structure—Synthesis and In Vivo/In Vitro Studies” (International Journal of Molecular Sciences, 2020)

How the values were obtained:
[1] = target: T1, Cav1.2 (h) calcium ion channel (Homo sapiens, UniProt Q13936); assay: Cav1.2 (h) cell-based antagonist calcium flux assay
T1 construct: host or cells: HEK-293
Experimental: Binding studies were carried out commercially in Eurofines Laboratories (Poitiers, France). The functional assays were performed in Eurofins Panlabs Discovery Services Taiwan, Ltd. (New Taipei City, Taiwan). All procedures are described elsewhere (for details, see Table S4 in Supplementary Materials).
Binding studies were carried out commercially in Eurofines Laboratories (Poitiers, France). The
functional assays were performed in Eurofins Panlabs Discovery Services Taiwan, Ltd. (New Taipei
City, Taiwan). All procedures are described elsewhere (Table S4).
Table S4. In vitro binding and functional assays. […]
Cav1.2 (h) calcium ion channel cell based antagonist calcium flux assay 16,17

[2] = tested on: tactile allodynia in OXPT-treated mice; assay: Oxaliplatin (OXPT)-induced peripheral neuropathy, von Frey test; type: in vivo
Experimental: In order to investigate the analgesic activity of the most promising compound 30 in a neuropathic pain model, we tested it in oxaliplatin (OXPT)-induced peripheral neuropathy, in which mechanical and cold allodynia result from impaired function of ion channels, among others. The early phase of neuropathic pain appears hours after OXPT administration, while the late phase develops days after OXPT. Thus, we tested compound 30 3 h and 7 days after the injection of OXPT. We investigated the influence of compound 30 on tactile allodynia using the von Frey method. Three hours after the administration of OXPT we observed a significant decrease in the mean value of force that caused paw withdrawal reaction (1.89 ± 0.04 g) (64.2% of the baseline) compared to nontreated animals (2.94 ± 0.06 g) (the baseline). Seven days after OXPT administration, the pain threshold was 2.00 ± 0.03 (68.0% of the baseline). […] In the late phase, the values of pain threshold were as follows 2.18 ± 0.06 g, 2.60 ± 0.08 g, and 2.91 ± 0.05 g, which correspond to 74.1%, 88.4%, and 98.9% of the baseline value.
The experimental groups consisted of 6–12 adult male Albino Swiss mice (CD-1, 18–25 g). Each animal was tested only once. Immediately after the assay, the animals were sacrificed by cervical dislocation. Behavioral measurements were observed by trained observers. The in vivo antinociceptive assays were in accordance with Polish regulations and European Union Directive of 22 September 2010 (2010/63/EU). All procedures were carried out according to the rules of the International Council on Laboratory Animal Science (ICLAS) and were approved by the Local Ethical Committee in Cracow, Poland (approval No 104/2015, 111/2016, and 179/2017). The tested substances were suspended in 1% aqueous solution of Tween-80 and were injected i.p. 30 min prior to the test. Control group animals (negative control) were administered with an appropriate amount of vehicle (Tween-80, 1% aqueous solution, i.p.) 30 min prior to the test.
The experimental in vivo procedures were previously reported for the formalin test; compounds 4 and 30 were tested in three doses—40, 80, 120 mg/kg (4), and 20, 40, 80 mg/kg (30). Before formalin application, different groups of animals were injected i.p. with vehicle (10 mL/kg, negative control). The in vivo procedure for the model of capsaicin-induced nociception was previously reported; the animals were pretreated with vehicle (10 mL/kg, negative control) and the dose–response of investigated compounds was evaluated at 40, 80, 120 mg/kg (4), and 20, 40, 80 mg/kg (30). The in vivo procedure for the model of OXPT-induced peripheral neuropathy was previously reported; the mice with developed tactile allodynia were pretreated i.p. with test compound 30 (20, 40, and 80 mg/kg) and vehicle.
Data are presented as means ± standard error of the mean (SEM). The GraphPad Prism Software (v.5) was used to analyze the vast majority of data. Statistically significant differences between groups were calculated using one-way analysis of variance (ANOVA) and the post hoc Dunnett’s multiple comparison test or two-way analysis of variance (ANOVA). The criterion for significance was set at p < 0.05.

CYP3A4 = target: T2, CYP3A4 (Homo sapiens, UniProt P08684); assay: Luminescent CYP3A4 P450-Glo assay; type: in vitro ADME; settings: 1 µM
T2 construct: purchased Promega (Madison, WI, USA)
T2 sequence (P08684 whole entry): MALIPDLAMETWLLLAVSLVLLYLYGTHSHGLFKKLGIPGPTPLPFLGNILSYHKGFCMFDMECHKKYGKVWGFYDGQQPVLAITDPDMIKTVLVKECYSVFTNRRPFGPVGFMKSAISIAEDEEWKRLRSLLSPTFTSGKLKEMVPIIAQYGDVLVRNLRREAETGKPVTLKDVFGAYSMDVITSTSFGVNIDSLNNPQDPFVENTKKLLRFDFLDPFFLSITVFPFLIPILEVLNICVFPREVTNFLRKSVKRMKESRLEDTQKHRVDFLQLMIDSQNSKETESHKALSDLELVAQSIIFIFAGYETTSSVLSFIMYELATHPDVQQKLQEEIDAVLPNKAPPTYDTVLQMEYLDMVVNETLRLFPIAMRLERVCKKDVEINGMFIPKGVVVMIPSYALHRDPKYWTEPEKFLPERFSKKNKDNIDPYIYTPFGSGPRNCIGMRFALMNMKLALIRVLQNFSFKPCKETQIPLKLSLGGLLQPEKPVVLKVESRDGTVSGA

[3] = early phase (3 h after OXPT), 20 mg/kg i.p.
[4] = early phase (3 h after OXPT), 40 mg/kg i.p.
[5] = early phase (3 h after OXPT), 80 mg/kg i.p.
[6] = late phase (7 days after OXPT), 20 mg/kg i.p.
[7] = late phase (7 days after OXPT), 40 mg/kg i.p.
[8] = late phase (7 days after OXPT), 80 mg/kg i.p.

T1 sequence (Q13936 whole entry): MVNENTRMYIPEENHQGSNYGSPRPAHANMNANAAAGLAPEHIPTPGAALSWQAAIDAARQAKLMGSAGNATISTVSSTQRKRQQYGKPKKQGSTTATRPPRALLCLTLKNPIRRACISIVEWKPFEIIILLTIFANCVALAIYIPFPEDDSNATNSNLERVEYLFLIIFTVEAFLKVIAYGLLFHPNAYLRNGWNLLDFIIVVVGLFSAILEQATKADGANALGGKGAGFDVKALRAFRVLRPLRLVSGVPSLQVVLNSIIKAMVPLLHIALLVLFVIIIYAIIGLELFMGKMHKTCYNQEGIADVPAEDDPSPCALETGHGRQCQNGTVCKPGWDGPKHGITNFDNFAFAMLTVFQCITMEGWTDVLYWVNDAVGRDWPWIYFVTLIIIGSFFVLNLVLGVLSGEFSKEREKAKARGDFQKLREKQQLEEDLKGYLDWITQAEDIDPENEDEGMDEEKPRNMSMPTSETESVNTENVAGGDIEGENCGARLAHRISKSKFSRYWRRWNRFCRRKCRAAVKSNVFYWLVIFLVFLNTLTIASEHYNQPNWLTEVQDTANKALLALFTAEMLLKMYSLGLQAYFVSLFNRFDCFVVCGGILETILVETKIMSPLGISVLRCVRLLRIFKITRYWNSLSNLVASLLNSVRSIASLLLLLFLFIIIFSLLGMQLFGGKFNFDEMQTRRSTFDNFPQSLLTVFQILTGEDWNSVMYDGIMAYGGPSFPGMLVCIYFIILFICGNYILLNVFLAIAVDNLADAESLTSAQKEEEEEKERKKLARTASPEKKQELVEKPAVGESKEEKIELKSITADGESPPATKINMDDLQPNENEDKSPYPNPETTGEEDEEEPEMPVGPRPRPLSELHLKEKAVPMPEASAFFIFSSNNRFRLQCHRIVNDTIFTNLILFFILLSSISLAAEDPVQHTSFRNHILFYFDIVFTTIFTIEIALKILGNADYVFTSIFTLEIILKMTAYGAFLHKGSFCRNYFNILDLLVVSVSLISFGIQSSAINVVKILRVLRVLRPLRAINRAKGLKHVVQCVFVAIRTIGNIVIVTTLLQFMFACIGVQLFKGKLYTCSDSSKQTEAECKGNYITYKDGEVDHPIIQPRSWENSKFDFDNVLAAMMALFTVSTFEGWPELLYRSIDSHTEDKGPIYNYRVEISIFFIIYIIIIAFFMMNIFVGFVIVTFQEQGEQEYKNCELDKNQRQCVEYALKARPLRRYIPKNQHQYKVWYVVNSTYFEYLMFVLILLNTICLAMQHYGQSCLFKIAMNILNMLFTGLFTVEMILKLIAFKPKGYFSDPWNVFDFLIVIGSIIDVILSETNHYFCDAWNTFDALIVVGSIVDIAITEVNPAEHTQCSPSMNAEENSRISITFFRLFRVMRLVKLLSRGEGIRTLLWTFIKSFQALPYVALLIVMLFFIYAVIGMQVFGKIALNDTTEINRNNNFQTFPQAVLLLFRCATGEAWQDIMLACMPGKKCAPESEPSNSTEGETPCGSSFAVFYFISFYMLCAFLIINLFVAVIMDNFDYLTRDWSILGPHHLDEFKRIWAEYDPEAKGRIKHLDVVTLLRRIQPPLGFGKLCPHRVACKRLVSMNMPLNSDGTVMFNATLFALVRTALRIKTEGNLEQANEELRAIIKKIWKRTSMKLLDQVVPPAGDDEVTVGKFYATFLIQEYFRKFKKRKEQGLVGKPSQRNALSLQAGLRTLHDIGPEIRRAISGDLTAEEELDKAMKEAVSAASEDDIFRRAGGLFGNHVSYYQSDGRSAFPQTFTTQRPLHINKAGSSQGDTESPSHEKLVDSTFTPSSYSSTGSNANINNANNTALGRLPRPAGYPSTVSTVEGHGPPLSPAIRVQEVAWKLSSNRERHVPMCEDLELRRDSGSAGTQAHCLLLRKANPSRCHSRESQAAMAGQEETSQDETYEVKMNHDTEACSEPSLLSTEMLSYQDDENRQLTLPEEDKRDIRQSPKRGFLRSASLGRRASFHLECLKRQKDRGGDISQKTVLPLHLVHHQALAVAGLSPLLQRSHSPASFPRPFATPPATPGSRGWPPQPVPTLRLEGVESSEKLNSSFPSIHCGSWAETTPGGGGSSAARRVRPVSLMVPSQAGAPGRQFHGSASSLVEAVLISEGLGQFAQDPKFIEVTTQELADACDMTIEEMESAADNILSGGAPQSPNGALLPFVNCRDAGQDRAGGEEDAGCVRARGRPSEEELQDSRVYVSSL
T1 sequence (Q08289 whole entry partner): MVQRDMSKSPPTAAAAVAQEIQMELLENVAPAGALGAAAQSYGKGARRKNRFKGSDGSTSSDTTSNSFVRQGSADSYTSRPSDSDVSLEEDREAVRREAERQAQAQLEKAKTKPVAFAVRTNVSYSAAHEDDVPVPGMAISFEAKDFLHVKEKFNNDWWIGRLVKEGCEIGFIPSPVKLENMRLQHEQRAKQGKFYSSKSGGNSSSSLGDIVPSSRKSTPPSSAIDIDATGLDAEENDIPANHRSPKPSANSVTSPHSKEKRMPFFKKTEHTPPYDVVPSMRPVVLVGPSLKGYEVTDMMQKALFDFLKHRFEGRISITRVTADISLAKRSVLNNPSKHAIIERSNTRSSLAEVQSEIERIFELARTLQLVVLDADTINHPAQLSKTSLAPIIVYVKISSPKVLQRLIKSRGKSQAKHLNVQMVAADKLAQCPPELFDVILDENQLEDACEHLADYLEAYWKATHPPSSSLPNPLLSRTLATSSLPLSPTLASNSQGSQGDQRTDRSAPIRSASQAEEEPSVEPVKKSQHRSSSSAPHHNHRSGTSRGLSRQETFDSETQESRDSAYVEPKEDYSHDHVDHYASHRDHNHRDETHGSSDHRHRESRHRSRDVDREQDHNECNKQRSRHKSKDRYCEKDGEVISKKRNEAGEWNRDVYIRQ
T1 sequence (P54289 25-956 partner limits assumed): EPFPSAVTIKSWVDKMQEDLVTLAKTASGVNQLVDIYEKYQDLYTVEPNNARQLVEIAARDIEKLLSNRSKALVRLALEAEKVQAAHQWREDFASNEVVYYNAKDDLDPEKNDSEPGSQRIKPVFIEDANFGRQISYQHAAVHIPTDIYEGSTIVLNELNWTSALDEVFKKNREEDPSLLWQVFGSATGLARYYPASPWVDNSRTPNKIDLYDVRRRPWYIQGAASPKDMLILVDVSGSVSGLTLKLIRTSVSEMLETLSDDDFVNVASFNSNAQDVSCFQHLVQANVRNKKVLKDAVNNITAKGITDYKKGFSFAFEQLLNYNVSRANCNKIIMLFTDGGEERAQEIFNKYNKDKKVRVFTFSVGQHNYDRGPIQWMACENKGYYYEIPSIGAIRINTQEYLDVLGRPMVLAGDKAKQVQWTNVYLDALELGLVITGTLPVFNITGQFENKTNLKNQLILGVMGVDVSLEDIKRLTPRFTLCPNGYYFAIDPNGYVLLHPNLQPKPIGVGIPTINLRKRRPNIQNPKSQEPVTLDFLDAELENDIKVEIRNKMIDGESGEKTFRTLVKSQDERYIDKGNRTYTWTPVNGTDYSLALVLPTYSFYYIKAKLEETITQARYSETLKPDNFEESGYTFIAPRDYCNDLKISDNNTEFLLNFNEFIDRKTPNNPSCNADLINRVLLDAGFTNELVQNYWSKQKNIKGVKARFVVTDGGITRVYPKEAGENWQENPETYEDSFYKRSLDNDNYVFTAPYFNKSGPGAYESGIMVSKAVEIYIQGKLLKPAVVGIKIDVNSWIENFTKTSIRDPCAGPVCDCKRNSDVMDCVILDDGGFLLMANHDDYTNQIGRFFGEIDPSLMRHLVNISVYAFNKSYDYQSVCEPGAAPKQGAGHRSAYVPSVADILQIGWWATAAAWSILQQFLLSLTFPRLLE
T1 sequence (P54289 957-1103 partner limits assumed): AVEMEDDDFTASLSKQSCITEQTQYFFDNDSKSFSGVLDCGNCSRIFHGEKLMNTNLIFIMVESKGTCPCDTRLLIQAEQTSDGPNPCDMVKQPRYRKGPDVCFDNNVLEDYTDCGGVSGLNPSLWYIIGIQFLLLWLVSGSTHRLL

O=C(NCCc1cccc(OC(F)(F)F)c1)C(c1ccccc1)N1C(=O)CCC1=O (stereo not drawn) [Compound 30, 2-(2,5-Dioxopyrrolidin-1-yl)-2-phenyl-N-(3-(trifluoromethoxy)phenethyl)acetamide]
antagonist properties in cell-based flux studies (Cav1.2) ([1]; 10 µM): moderate antagonist properties | inhibition at 10 µM ([1]; HEK293, human recombinant (HEK-293 cells), read-out: % Inhibition of Control Agonist Response, Cav1.2 (h) calcium flux): 49% | pain sensitivity threshold (von Frey, force causing paw withdrawal) [2, 3]: 2.26 ± 0.08 g | pain threshold, % of the baseline value [2, 3]: 76.8% | pain sensitivity threshold (von Frey, force causing paw withdrawal) [2, 4]: 2.49 ± 0.05 g | pain threshold, % of the baseline value [2, 4]: 84.7% | pain sensitivity threshold (von Frey, force causing paw withdrawal) [2, 5]: 2.97 ± 0.05 g | pain threshold, % of the baseline value [2, 5]: 101.0% | pain threshold (von Frey) [2, 6]: 2.18 ± 0.06 g | pain threshold, % of the baseline value [2, 6]: 74.1% | pain threshold (von Frey) [2, 7]: 2.60 ± 0.08 g | pain threshold, % of the baseline value [2, 7]: 88.4% | pain threshold (von Frey) [2, 8]: 2.91 ± 0.05 g | pain threshold, % of the baseline value [2, 8]: 98.9% | effect on CYP3A4 activity (CYP3A4): slightly inhibited CYP3A4 activity
